According to ChEMBL document CHEMBL3608224, “Total synthesis of cordatanine, structural reassignment of drymaritin, and anti-inflammatory activity of synthetic precursors” (Bioorg Med Chem Lett, 2015):
In brackets after ≈: the same amount, converted by molar mass.

What was measured:
[1] = Antiinflammatory activity in FMLP/CB-induced human neutrophils assessed as inhibition of superoxide anion generation; format: functional, cell-based; conditions: Neutrophil
[2] = Antiinflammatory activity in FMLP/CB-induced human neutrophils assessed as inhibition of superoxide anion generation relative to control; format: functional, Neutrophil
[3] = Antiinflammatory activity in FMLP/CB-induced human neutrophils assessed as inhibition of elastase release; format: functional, cell-based; conditions: Neutrophil
[4] = Antiinflammatory activity in FMLP/CB-induced human neutrophils assessed as inhibition of elastase release relative to control; format: functional, Neutrophil

Row | IC50 [1] [µg/mL] | IC50 [3] [µg/mL] | Compound | inhibition (INH) [2] [%] | inhibition (INH) [4] [%]
1 | > 10 | > 10 | COc1cc(=O)n2c3ccccc3c3ccnc1c32 | 29.5 | 8.2
2 | > 10 | > 10 | CCOC(=O)CC(=O)c1nccc2c1[nH]c1ccccc12 | 10.48 | 3.06

Row | Compound | IC50 [1] [µg/mL] | IC50 [3] [µg/mL] | inhibition (INH) [2] [%] | inhibition (INH) [4] [%]
3 | CCOC(=O)c1nccc2c1[nH]c1ccccc12 | 4.87 (≈ 20.3 µM) | 6.29 (≈ 26.2 µM) | 93.92 | 70.75
